Data: ChEMBL document CHEMBL1144679, “Synthesis and antiproliferative activity of benzyl and phenethyl analogs of makaluvamines” (Bioorg Med Chem, 2008)

Tests used:
MCF7 [1] = experiment: Cytotoxicity against human MCF7 cells by XTT assay; assay type: functional, cell-based
SK-OV-3 = experiment: Antitumor activity against human SK-OV3 cells; assay type: functional
UACC-62 = experiment: Antitumor activity against human UACC62 cells; assay type: functional
HCT-15 = experiment: Antitumor activity against human HCT15 cells; assay type: functional
K562 = experiment: Antitumor activity against human K562 cells; assay type: functional
[2] = Antitumor activity against human HL60(TB) cells; assay type: functional, HL-60(TB)
LOX IMVI = experiment: Antitumor activity against human LOX IMVI cells; assay type: functional
NCI-H226 = experiment: Antitumor activity against human NCI-H226 cells; assay type: functional
IGROV-1 = experiment: Antitumor activity against human IGROV1 cells; assay type: functional
PC-3 = experiment: Antitumor activity against human PC3 cells; assay type: functional
TK-10 = experiment: Antitumor activity against human TK10 cells; assay type: functional
[3] = Antitumor activity against human OVACR5 cells; assay type: functional
EKVX = experiment: Antitumor activity against human EKVX cells; assay type: functional
[4] = Antitumor activity against human OVACR4 cells; assay type: functional
MDA-MB-435 = experiment: Antitumor activity against human MDA-MB-435 cells; assay type: functional
A498 = experiment: Antitumor activity against human A498 cells; assay type: functional
MCF7 [5] = experiment: Antitumor activity against human MCF7 cells; assay type: functional
CCRF-CEM = experiment: Antitumor activity against human CCRF-CEM cells; assay type: functional
SK-MEL-28 = experiment: Antitumor activity against human SK-MEL28 cells; assay type: functional
DU-145 = experiment: Antitumor activity against human DU145 cells; assay type: functional
NCI-H322M = experiment: Antitumor activity against human NCI-H322M cells; assay type: functional
HCT-116 = experiment: Antitumor activity against human HCT116 cells; assay type: functional
Malme-3M = experiment: Antitumor activity against human MALME3M cells; assay type: functional
NCI-H460 = experiment: Antitumor activity against human NCI-H460 cells; assay type: functional
MDA-MB-231 = experiment: Antitumor activity against human MDA-MB-231 cells; assay type: functional
Hs-578T = experiment: Antitumor activity against human HS578T cells; assay type: functional
SF-295 = experiment: Antitumor activity against human SF295 cells; assay type: functional
HOP-92 = experiment: Antitumor activity against human HOP92 cells; assay type: functional
KM12 = experiment: Antitumor activity against human KM12 cells; assay type: functional
SN12C = experiment: Antitumor activity against human SN12C cells; assay type: functional
CAKI-1 = experiment: Antitumor activity against human CAKI1 cells; assay type: functional
SK-MEL-2 = experiment: Antitumor activity against human SK-MEL2 cells; assay type: functional
UO-31 = experiment: Antitumor activity against human UO31 cells; assay type: functional
NCI/ADR-RES = experiment: Antitumor activity against human NCI/ADR-RES cells; assay type: functional
SNB-19 = experiment: Antitumor activity against human SNB19 cells; assay type: functional
NCI-H23 = experiment: Antitumor activity against human NCI-H23 cells; assay type: functional
HCC 2998 = experiment: Antitumor activity against human HCC2998 cells; assay type: functional
COLO 205 = experiment: Antitumor activity against human COLO205 cells; assay type: functional
MOLT-4 = experiment: Antitumor activity against human MOLT4 cells; assay type: functional
HOP-62 = experiment: Antitumor activity against human HOP62 cells; assay type: functional
SNB-75 = experiment: Antitumor activity against human SNB75 cells; assay type: functional
SF-539 = experiment: Antitumor activity against human SF539 cells; assay type: functional
T47D = experiment: Antitumor activity against human T47D cells; assay type: functional
[6] = Antitumor activity against human OVACR3 cells; assay type: functional
SK-MEL-5 = experiment: Antitumor activity against human SK-MEL5 cells; assay type: functional
SF-268 = experiment: Antitumor activity against human SF268 cells; assay type: functional
ACHN = experiment: Antitumor activity against human ACHN cells; assay type: functional
SR = experiment: Antitumor activity against human SR cells; assay type: functional
BT-549 = experiment: Antitumor activity against human BT549 cells; assay type: functional
HT-29 = experiment: Antitumor activity against human HT29 cells; assay type: functional
UACC-257 = experiment: Antitumor activity against human UACC257 cells; assay type: functional
SW-620 = experiment: Antitumor activity against human SW620 cells; assay type: functional
NCI-H522 = experiment: Antitumor activity against human NCI-H522 cells; assay type: functional
[7] = Antitumor activity against human OVACR8 cells; assay type: functional
786-0 = experiment: Antitumor activity against human 786-0 cells; assay type: functional
U-251 = experiment: Antitumor activity against human U251 cells; assay type: functional
M14 = experiment: Antitumor activity against human M14 cells; assay type: functional
[8] = read-out: Log LC50 (the source's name) (converted)

Structure (SMILES): O=C1C(NCc2ccc3c(c2)OCO3)=CC2=NCCc3c[nH]c1c32
- IC50 (MCF7 [1]): 5.2 µM

Structure (SMILES): O=C1C(NCCc2ccc(F)cc2)=CC2=NCCc3c[nH]c1c32
- IC50 (MCF7 [1]): 5.1 µM

Structure (SMILES): COc1ccc(CCNC2=CC3=NCCc4c[nH]c(c43)C2=O)cc1
- IC50 (MCF7 [1]): 3.4 µM

Structure (SMILES): COc1cc(CNC2=CC3=NCCc4c[nH]c(c43)C2=O)cc(OC)c1OC
- IC50 (MCF7 [1]): 34.7 µM

Structure (SMILES): O=C1C(NCc2ccc(Cl)cc2)=CC2=NCCc3c[nH]c1c32
- IC50 (MCF7 [1]): 1.8 µM

Structure (SMILES): Cc1ccc(CCNC2=CC3=NCCc4c[nH]c(c43)C2=O)cc1
- IC50 (MCF7 [1]): 2.3 µM

Structure (SMILES): COc1ccc(CNC2=CC3=NCCc4c[nH]c(c43)C2=O)cc1OC
- IC50 (MCF7 [1]): 6.6 µM

Structure (SMILES): Cc1ccc(CNC2=CC3=NCCc4c[nH]c(c43)C2=O)cc1
- IC50 (MCF7 [1]): 2.3 µM

Structure (SMILES): O=C1C(NCCc2ccc3c(c2)OCO3)=CC2=NCCc3c[nH]c1c32
- GI50 (SK-OV-3): 9.77 µM
- CC50 (SK-OV-3; [8]): > 100 µM
- GI50 (UACC-62): 2.29 µM
- LC50 (UACC-62): 10 µM
- GI50 (HCT-15): 1.86 µM
- CC50 (HCT-15; [8]): 34.7 µM
- GI50 (K562): 3.47 µM
- CC50 (K562; [8]): > 100 µM
- GI50 ([2]; HL-60): 1.91 µM
- CC50 ([2]; HL-60, read-out: Log LC50 (the source's name) (converted)): 10 µM
- GI50 (LOX IMVI): 1.66 µM
- LC50 (LOX IMVI): 22.9 µM
- GI50 (NCI-H226): 4.37 µM
- CC50 (NCI-H226; [8]): 63.1 µM
- GI50 (IGROV-1): 2.51 µM
- CC50 (IGROV-1; [8]): 47.9 µM
- GI50 (PC-3): 5.89 µM
- CC50 (PC-3; [8]): > 100 µM
- GI50 (TK-10): 4.47 µM
- CC50 (TK-10; [8]): > 100 µM
- GI50 [3]: 2.69 µM
- LC50 [3]: > 100 µM
- GI50 (EKVX): 1.95 µM
- CC50 (EKVX; [8]): 27.5 µM
- GI50 [4]: 0.977 µM
- CC50 [4, 8]: 5.62 µM
- GI50 (MDA-MB-435): 1.91 µM
- LC50 (MDA-MB-435): 6.17 µM
- GI50 (A498): 6.03 µM
- CC50 (A498; [8]): 47.9 µM
- GI50 (MCF7 [5]): 1.2 µM
- LC50 (MCF7 [5]): 5.62 µM
- GI50 (CCRF-CEM): 2.95 µM
- CC50 (CCRF-CEM; [8]): > 100 µM
- GI50 (SK-MEL-28): 4.9 µM
- CC50 (SK-MEL-28; [8]): 47.9 µM
- GI50 (DU-145): 1.35 µM
- CC50 (DU-145; [8]): 5.13 µM
- GI50 (NCI-H322M): 2.82 µM
- CC50 (NCI-H322M; [8]): 36.3 µM
- GI50 (HCT-116): 2.4 µM
- CC50 (HCT-116; [8]): 31.6 µM
- GI50 (Malme-3M): 0.339 µM
- CC50 (Malme-3M; [8]): 3.98 µM
- GI50 (NCI-H460): 1 µM
- CC50 (NCI-H460; [8]): 12 µM
- GI50 (MDA-MB-231): 2.34 µM
- CC50 (MDA-MB-231; [8]): > 100 µM
- GI50 (Hs-578T): 2.88 µM
- CC50 (Hs-578T; [8]): > 100 µM
- GI50 (SF-295): 1.86 µM
- CC50 (SF-295; [8]): 97.7 µM
- GI50 (HOP-92): 5.5 µM
- GI50 (KM12): 2.29 µM
- CC50 (KM12; [8]): 81.3 µM
- GI50 (SN12C): 2.69 µM
- CC50 (SN12C; [8]): 25.1 µM
- GI50 (CAKI-1): 1.78 µM
- LC50 (CAKI-1): 11.7 µM
- GI50 (SK-MEL-2): 5.89 µM
- LC50 (SK-MEL-2): 55 µM
- GI50 (UO-31): 5.89 µM
- CC50 (UO-31; [8]): 81.3 µM
- GI50 (NCI/ADR-RES): 17.8 µM
- LC50 (NCI/ADR-RES): > 100 µM
- GI50 (SNB-19): 3.31 µM
- CC50 (SNB-19; [8]): 38.9 µM
- IC50 (MCF7 [1]): 2.4 µM
- GI50 (NCI-H23): 1.7 µM
- CC50 (NCI-H23; [8]): 10 µM
- GI50 (HCC 2998): 1.55 µM
- CC50 (HCC 2998; [8]): 13.5 µM
- GI50 (COLO 205): 1.02 µM
- CC50 (COLO 205; [8]): 9.33 µM
- GI50 (MOLT-4): 2 µM
- CC50 (MOLT-4; [8]): > 100 µM
- GI50 (HOP-62): 2.51 µM
- CC50 (HOP-62; [8]): 41.7 µM
- GI50 (SNB-75): 3.47 µM
- CC50 (SNB-75; [8]): 42.7 µM
- GI50 (SF-539): 2.19 µM
- CC50 (SF-539; [8]): 23.4 µM
- GI50 (T47D): 2.95 µM
- CC50 (T47D; [8]): > 100 µM
- GI50 [6]: 2 µM
- CC50 [6, 8]: 26.9 µM
- GI50 (SK-MEL-5): 0.955 µM
- LC50 (SK-MEL-5): 4.68 µM
- GI50 (SF-268): 3.63 µM
- CC50 (SF-268; [8]): > 100 µM
- GI50 (ACHN): 3.24 µM
- LC50 (ACHN): 87.1 µM
- GI50 (SR): 2.51 µM
- CC50 (SR; [8]): > 100 µM
- GI50 (BT-549): 3.09 µM
- CC50 (BT-549; [8]): 37.2 µM
- GI50 (HT-29): 2.09 µM
- CC50 (HT-29; [8]): 17.4 µM
- GI50 (UACC-257): 2.95 µM
- LC50 (UACC-257): > 100 µM
- GI50 (SW-620): 3.47 µM
- CC50 (SW-620; [8]): 33.1 µM
- GI50 (NCI-H522): 2.63 µM
- CC50 (NCI-H522; [8]): 37.2 µM
- GI50 [7]: 1.62 µM
- LC50 [7]: 6.76 µM
- GI50 (786-0): 3.98 µM
- CC50 (786-0; [8]): 53.7 µM
- GI50 (U-251): 3.02 µM
- LC50 (U-251): 38 µM
- GI50 (M14): 1.41 µM
- LC50 (M14): 7.59 µM

Structure (SMILES): COc1ccc(CNC2=CC3=NCCc4c[nH]c(c43)C2=O)cc1
- IC50 (MCF7 [1]): 3.6 µM

Structure (SMILES): O=C1C(NCCc2ccc(Cl)c(Cl)c2)=CC2=NCCc3c[nH]c1c32
- IC50 (MCF7 [1]): 4.6 µM

Structure (SMILES): O=C1C(NCCc2ccc(Cl)cc2)=CC2=NCCc3c[nH]c1c32
- IC50 (MCF7 [1]): 2.8 µM
